According to paper PMC12021657, “Rapid traversal of vast chemical space using machine learning-guided docking screens” (Nature Computational Science, 2025):

biological target: T1, Human A2AR (Homo sapiens, UniProt P29274); test: Human A2AR competition radioligand binding ([3H]-ZM241385, HeLa-A2A membranes); settings: 20 µM compound, mean ± SEM of two technical replicates
T1 construct: expressed in transfected cells; host or cells: HeLa-A2A cell line (membranes prepared in house, lot A003/14-04-2019)
T1 sequence (P29274 whole entry): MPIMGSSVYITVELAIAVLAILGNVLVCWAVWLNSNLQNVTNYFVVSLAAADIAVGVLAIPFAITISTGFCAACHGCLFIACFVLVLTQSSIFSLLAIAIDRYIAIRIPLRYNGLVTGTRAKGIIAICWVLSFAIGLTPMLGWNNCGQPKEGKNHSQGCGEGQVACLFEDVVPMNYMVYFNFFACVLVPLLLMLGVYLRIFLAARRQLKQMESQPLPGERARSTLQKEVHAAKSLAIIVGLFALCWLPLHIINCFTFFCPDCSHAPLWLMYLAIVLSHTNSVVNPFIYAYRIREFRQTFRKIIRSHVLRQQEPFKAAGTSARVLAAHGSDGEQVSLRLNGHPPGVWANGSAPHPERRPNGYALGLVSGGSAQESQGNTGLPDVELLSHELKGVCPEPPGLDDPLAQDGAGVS
Description: Screening compounds (Supplementary Tables 10 and 12) were purchased from Enamine (compound purity >90%, which was confirmed by liquid chromatography−mass spectrometry and ^1H NMR spectroscopy for identified ligands; Supplementary Figs. 19–30). Human D2R competition binding experiments were carried out in polypropylene 96-well plates. Each well contained 20 µg of membranes from a CHO-D2R #S20 cell line (protein concentration of 4,322 µg ml^−1), 1.5 nM [^3H]-spiperone (54.3 Ci mmol^−1, 1 mCi ml^−1, PerkinElmer NET1187250UC) and the compound studied. Non-specific binding was determined in the presence of 10 µM sulpiride (Sigma Aldrich S8010). The reaction mixture (250 µl per well) was incubated at 25 °C for 120 min, after which 200 µl was transferred to a GF/C 96-well plate (Millipore) pretreated with 0.5% PEI and treated with binding buffer (50 mM Tris-HCl, 1 mM EDTA, 5 mM MgCl2, 5 mM KCl, 120 mM NaCl, pH 7.4). The reaction mixture was filtered and washed 4 times with 250 µl wash buffer (50 mM Tris-HCl, 0.9% NaCl, pH 7.4) before the addition of 30 μl Universol. The final measurement was performed in a microplate beta scintillation counter (Microbeta Trilux, PerkinElmer). Human A2AR competition binding experiments were carried out in a multiscreen GF/C 96-well plate (Millipore) pretreated with binding buffer (Tris-HCl 50 mM, EDTA 1 mM, MgCl2 10 mM, 2 U ml^−1 adenosine deaminase, pH 7.4). Each well was incubated with 5 μg of membranes from the HeLa-A2A cell line and prepared in our laboratory (lot A003/14-04-2019, protein concentration 2,058 μg ml^−1), 1 nM [^3H]-ZM241385 (50 Ci mmol^−1, 1 mCi ml^−1, ARC-ITISA 0884), and the compounds studied and standards. Non-specific binding was determined in the presence of NECA 50 μM (Sigma E2387). The reaction mixture (total volume of 200 μl per well) was incubated at 25 °C for 30 min, then filtered and washed 4 times with 250 μl wash buffer (Tris-HCl 50 mM, EDTA 1 mM, MgCl2 10 mM, pH 7.4), and measured in a microplate beta scintillation counter (Microbeta Trilux, PerkinElmer). Unless stated otherwise, three independent experiments were carried out to calculate Ki values.

In order of falling “A2AR radioligand displacement at 20 µM (%)” value:
1. Cc1cccc2[nH]c(NC(=O)C(N)Cc3cccc(Cl)c3)nc12 (stereo not drawn) [Z8854579352, Cc1cccc2c1nc([nH]2)NC(=O)C(Cc3cccc(c3)Cl)N]  57±4%
2. N[C@@H](CC(=O)Nc1nc2c(Br)cc(F)cc2[nH]1)Cc1ccccc1 [Z8854579338, c1ccc(cc1)C[C@H](CC(=O)Nc2[nH]c3cc(cc(c3n2)Br)F)N]  49±2%
3. COc1ccc(Cl)c(CCN=C(N)Nc2ncccn2)c1 [Z8854579336, COc1ccc(c(c1)CCN=C(N)Nc2ncccn2)Cl]  39±1%
4. NC(=NCc1cc2ccccc2o1)Nc1ncccn1 [Z8854579345, c1ccc2c(c1)cc(o2)CN=C(N)Nc3ncccn3]  32±2%
5. NC(=NCc1ccsc1-n1cccc1)Nc1ncccn1 [Z8854579347, c1ccn(c1)c2c(ccs2)CN=C(N)Nc3ncccn3]  32±4%
6. Cc1cccc2[nH]c(NC(=O)C(N)Cc3csc4ccccc34)nc12 (stereo not drawn) [Z8854579351, Cc1cccc2c1nc([nH]2)NC(=O)C(Cc3csc4c3cccc4)N]  31±1%
7. N[C@H]1c2ccccc2C[C@H]1C(=O)Nc1ccn(-c2ccccn2)n1 [Z8854579342, c1ccc2c(c1)C[C@H]([C@H]2N)C(=O)Nc3ccn(n3)c4ccccn4]  30±2%
8. Cc1ccc(C[C@H](N)CC(=O)Nc2nc3c(C)cccc3[nH]2)cc1 [Z8854579350, Cc1ccc(cc1)C[C@@H](CC(=O)Nc2[nH]c3cccc(c3n2)C)N]  30±3%
9. NC(=NCCc1ccccc1Cl)Nc1ncccn1 [Z8854579337, c1ccc(c(c1)CCN=C(N)Nc2ncccn2)Cl]  29±4%
10. NC(=NCCc1cccc(Br)c1)Nc1ncccn1 [Z8854579355, c1cc(cc(c1)Br)CCN=C(N)Nc2ncccn2]  28±1%
11. NC(=NCCOc1ccc(F)c(Cl)c1)Nc1ncccn1 [Z8854579360, c1cnc(nc1)NC(=NCCOc2ccc(c(c2)Cl)F)N]  26±3%
12. NC(=NCc1nc(-c2ccccc2)n[nH]1)Nc1ccccn1 [Z2518713795, c1ccc(cc1)c2nc([nH]n2)CN=C(N)Nc3ccccn3]  23±3%
13. NC(=NCCOc1cccc(C(F)(F)F)c1)Nc1ncccn1 [Z8854579346, c1cc(cc(c1)OCCN=C(N)Nc2ncccn2)C(F)(F)F]  23±1%
14. NC(=NCCc1ccccc1OC(F)(F)F)Nc1ncccn1 [Z8854579353, c1ccc(c(c1)CCN=C(N)Nc2ncccn2)OC(F)(F)F]  22±5%
15. CC(Cc1c[nH]c2ncccc12)NCc1nn(C)c2ccccc12 (stereo not drawn) [Z7272600070, CC(Cc1c[nH]c2c1cccn2)NCc3c4ccccc4n(n3)C]  20±1%
16. NC(=NCCc1c(F)cccc1Br)Nc1ncccn1 [Z8854579363, c1cc(c(c(c1)Br)CCN=C(N)Nc2ncccn2)F]  20±1%
17. Cc1cc(NC(=O)c2cccn2CCN2CCOCC2)ns1 [Z3591989733, Cc1cc(ns1)NC(=O)c2cccn2CCN3CCOCC3]  19±1%
18. NC(=NCCOc1ccc(F)cc1)Nc1ncccn1 [Z8854579344, c1cnc(nc1)NC(=NCCOc2ccc(cc2)F)N]  17±1%
19. NC(=NCCCc1ccc(F)cc1)Nc1ncccn1 [Z8854579364, c1cnc(nc1)NC(=NCCCc2ccc(cc2)F)N]  17±4%
20. CCc1ccc(CNCCc2c[nH]c3c(OC)cccc23)nc1 [Z3765568162, CCc1ccc(nc1)CNCCc2c[nH]c3c2cccc3OC]  16±4%
21. NC(=NCCc1c(F)cccc1Cl)Nc1ncccn1 [Z8854579358, c1cc(c(c(c1)Cl)CCN=C(N)Nc2ncccn2)F]  16±4%
22. CSc1ccc(CCN=C(N)Nc2ncccn2)cc1 [Z8854579356, CSc1ccc(cc1)CCN=C(N)Nc2ncccn2]  15±1%
23. Cc1ccc(F)c(CCN=C(N)Nc2ncccn2)c1 [Z8854579366, Cc1ccc(c(c1)CCN=C(N)Nc2ncccn2)F]  15±1%
24. NC(=NCCc1ccc(F)cc1F)Nc1ncccn1 [Z8854579368, c1cnc(nc1)NC(=NCCc2ccc(cc2F)F)N]  14±1%
25. COc1cc(CNC(C)Cc2c[nH]c3ncccc23)ncc1C (stereo not drawn) [Z7326877935, Cc1cnc(cc1OC)CNC(C)Cc2c[nH]c3c2cccn3]  13±2%
26. COc1ccc(CCN=C(N)Nc2ncccn2)c(F)c1 [Z8854579362, COc1ccc(c(c1)F)CCN=C(N)Nc2ncccn2]  12±4%
27. Cn1ccc(NC(=O)CNC(=O)C2Cc3c(Br)cccc3CN2)n1 (stereo not drawn) [Z8854579367, Cn1ccc(n1)NC(=O)CNC(=O)C2Cc3c(cccc3Br)CN2]  10±2%
28. O=c1[nH]c(NCC2CCN(CCc3ccccc3)C2)nc2ccsc12 (stereo not drawn) [Z5332306614, c1ccc(cc1)CCN2CCC(C2)CNc3[nH]c(=O)c4c(n3)ccs4]  8±1%
29. O=C(NCc1nccc(=O)[nH]1)C1CCCN1Cc1ccccc1 (stereo not drawn) [Z4219981720, c1ccc(cc1)CN2CCCC2C(=O)NCc3[nH]c(=O)ccn3]  6±4%
30. Cc1ccc(NCCNC(=O)C2Cc3c(C)cccc3CN2)nc1 (stereo not drawn) [Z8854579335, Cc1ccc(nc1)NCCNC(=O)C2Cc3c(cccc3CN2)C]  6±2%
31. O=C(CN1CCC1Cc1ccccc1)Nc1ncc[nH]1 (stereo not drawn) [Z6743522026, c1ccc(cc1)CC2CCN2CC(=O)Nc3[nH]ccn3]  5±3%
32. NC(Cc1ccccc1Cl)C(=O)N1CC(C(=O)Nc2nccs2)C1 (stereo not drawn) [Z6437654059, c1ccc(c(c1)CC(C(=O)N2CC(C2)C(=O)Nc3nccs3)N)Cl]  3±2%
33. CCc1ccnc(NCC2CN(Cc3ccccc3)CC2C)n1 (stereo not drawn) [Z5471612810, CCc1ccnc(n1)NCC2CN(CC2C)Cc3ccccc3]  2±1%
34. Cc1nc(NC(=O)C(N)Cc2cccc(Br)n2)[nH]c1C (stereo not drawn) [Z6382061841, Cc1c(nc([nH]1)NC(=O)C(Cc2cccc(n2)Br)N)C]  2±2%
35. NC(CC(=O)Nc1cc2ncccn2n1)C(=O)OCc1ccccc1 (stereo not drawn) [Z8854579341, c1ccc(cc1)COC(=O)C(CC(=O)Nc2cc3ncccn3n2)N]  2±2%
36. NC(=NCCOc1ccc(F)cc1F)Nc1ncccn1 [Z8854579369, c1cnc(nc1)NC(=NCCOc2ccc(cc2F)F)N]  2±3%
37. O=C(Nc1ncccn1)C1CCN(CC(O)C2CCC2)CC1 (stereo not drawn) [Z3292775568, c1cnc(nc1)NC(=O)C2CCN(CC2)CC(C3CCC3)O]  1±2%
38. Cc1cccc2c1CC(C(=O)NCCNc1ncccn1)NC2 (stereo not drawn) [Z8854579354, Cc1cccc2c1CC(NC2)C(=O)NCCNc3ncccn3]  1±1%

same assay, conditions: xlsx sheet A2AR_Displacement, read-out: Ki (A2AR) printed in column Displacement at 20 uM (%)

`CCOC(=O)c1cccc2[nH]c(NC(=O)C(N)Cc3ccco3)nc12` (stereo not drawn) [Compound 6, CCOC(=O)c1cccc2c1nc([nH]2)NC(=O)C(Cc3ccco3)N] gave a Ki of 1300 nM.
